According to the Kinase Knowledgebase extract (Sharma et al. 2016):

The compounds below were run against ROCK2 (human) (UniProt O75116) (assay: Inhibition of ROCK2 Kinase Activity).
Sequence of ROCK2 (human) (O75116 whole entry, looked up): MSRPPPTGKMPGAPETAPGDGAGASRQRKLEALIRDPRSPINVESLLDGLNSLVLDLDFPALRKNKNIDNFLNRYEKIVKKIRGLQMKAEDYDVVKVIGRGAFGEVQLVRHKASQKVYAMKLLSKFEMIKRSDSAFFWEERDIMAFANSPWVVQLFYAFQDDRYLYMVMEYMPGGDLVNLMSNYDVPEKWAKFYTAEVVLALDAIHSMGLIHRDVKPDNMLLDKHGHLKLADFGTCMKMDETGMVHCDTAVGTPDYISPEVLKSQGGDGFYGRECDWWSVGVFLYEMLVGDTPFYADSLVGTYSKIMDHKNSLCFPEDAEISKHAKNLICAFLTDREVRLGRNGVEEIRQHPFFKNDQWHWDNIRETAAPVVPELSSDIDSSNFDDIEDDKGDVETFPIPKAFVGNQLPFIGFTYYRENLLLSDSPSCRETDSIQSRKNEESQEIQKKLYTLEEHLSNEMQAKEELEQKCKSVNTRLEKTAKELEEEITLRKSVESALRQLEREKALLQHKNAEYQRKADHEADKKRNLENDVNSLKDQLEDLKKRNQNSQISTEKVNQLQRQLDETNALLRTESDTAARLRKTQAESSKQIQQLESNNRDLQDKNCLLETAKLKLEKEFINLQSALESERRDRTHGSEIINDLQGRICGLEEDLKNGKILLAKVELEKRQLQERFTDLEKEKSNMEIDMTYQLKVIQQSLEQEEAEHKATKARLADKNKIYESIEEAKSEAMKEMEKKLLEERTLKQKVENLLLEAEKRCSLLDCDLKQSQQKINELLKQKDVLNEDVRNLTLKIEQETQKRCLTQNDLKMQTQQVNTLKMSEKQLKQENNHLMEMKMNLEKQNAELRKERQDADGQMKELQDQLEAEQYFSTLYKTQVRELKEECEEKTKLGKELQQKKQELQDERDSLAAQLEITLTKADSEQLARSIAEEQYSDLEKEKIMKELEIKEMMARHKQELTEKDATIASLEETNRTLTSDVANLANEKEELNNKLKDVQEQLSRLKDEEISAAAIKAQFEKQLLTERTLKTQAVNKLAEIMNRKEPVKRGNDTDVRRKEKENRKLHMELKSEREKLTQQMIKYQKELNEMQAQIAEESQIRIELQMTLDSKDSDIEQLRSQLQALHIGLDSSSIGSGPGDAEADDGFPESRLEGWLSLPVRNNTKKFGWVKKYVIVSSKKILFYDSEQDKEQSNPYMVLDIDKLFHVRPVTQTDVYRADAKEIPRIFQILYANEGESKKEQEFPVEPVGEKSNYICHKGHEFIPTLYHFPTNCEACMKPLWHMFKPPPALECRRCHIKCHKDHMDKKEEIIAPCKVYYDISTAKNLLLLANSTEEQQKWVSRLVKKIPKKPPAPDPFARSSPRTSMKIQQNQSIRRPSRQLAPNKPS

SMILES | IC50
Ic1c(OC2CCNCC2)ccc2cnccc12 | ≤ 1000 nM
Clc1cc2cnccc2c(Cl)c1OC1CCNCC1 | ≤ 1000 nM
Clc1cc(OC2CCNCC2)cc2ccncc12 | ≤ 1000 nM
COc1cc(Nc2cc3cc(OC4CCNCC4)ccc3cn2)cc(OC)c1OC | ≤ 1000 nM
Brc1c(OC2CCNCC2)ccc2cnccc12 | ≤ 1000 nM
c1ccc2oc(-c3c(OC4CCNCC4)ccc4cnccc34)cc2c1 | ≤ 1000 nM

Second part, the compound after the results:

IC50 | SMILES
≤ 1000 nM | CN1CCCC(COc2ccc3cnccc3c2Br)C1 (stereo not drawn)
≤ 1000 nM | Clc1cncc2ccc(OC3CCNCC3)cc12
≤ 1000 nM | c1cc2c(cc1Nc1cc3cc(OC4CCNCC4)ccc3cn1)OCO2
≤ 1000 nM | COc1ccc(-c2c(OC3CCNCC3)ccc3cnccc23)cc1N
≤ 1000 nM | c1ccc(-c2cc3cnccc3cc2OC2CCNCC2)cc1
≤ 1000 nM | COc1ccc2cc(CN3CCC(Oc4ccc5cnccc5c4)CC3)ccc2c1
≤ 1000 nM | Cc1cc(OC2CCNCC2)c(C)c2ccncc12
